According to patent US9949945B2, “3′ equatorial-fluorine-substituted neuraminidase inhibitor compounds, compositions and methods for the use thereof as anti-virals” (THE UNIVERSITY OF BRITISH COLUMBIA, priority 2012, dated 2018):
Read-outs that look alike come from different tables or passages of the source.

Tests used:
Format in all cases: biochemical
[1] = molecular target: Sol Isl sH1N1 E119A (A/Solomon Islands/3/2006 mutant) NA (Influenza A virus, UniProt B4URD9, E119A)
[2] = molecular target: sH1N1/01 H275Y (A/Mississippi/3/01 oseltamivir-resistant) NA (Influenza A virus, UniProt Q3M0T6, H275Y)
[3] = molecular target: A/Fukui H3N2 E119V (oseltamivir-resistant) NA (Influenza A virus, UniProt A0A0F6NYK2, E119V); settings: read-out: IC50 in the enzyme inhibition assay, A/Fukui H3N2 E119V
[4] = molecular target: B/Florida E119D (B/Florida/4/2006 mutant 1 E117D) NA (Influenza B virus, UniProt J7JZT1, E117D)

Substance | IC50 [1] [nM] | IC50 ([2]; read-out: IC50 in the enzyme inhibition assay, A/Mississippi H1N1 H275Y) [nM] | IC50 ([2]; read-out: IC50 sH1N/01 H275Y) [nM] | IC50 [3] [nM] | IC50 [4] [nM]
Zanamivir | > 10000 | 2.2 | 2.2 | – | –
Oseltamivir | – | – | – | 260 | 1200
